# pEC50: −log10 of the molar value.
# Legend:
# Assay type in all cases: functional, cell-based
# [1] = target: T1, Peroxisome proliferator-activated receptor alpha (Homo sapiens, UniProt Q07869); experiment: Agonist activity at PPARalpha transfected in HEK293 cells by GAL4 transactivation assay
# T1 sequence (Q07869 whole entry): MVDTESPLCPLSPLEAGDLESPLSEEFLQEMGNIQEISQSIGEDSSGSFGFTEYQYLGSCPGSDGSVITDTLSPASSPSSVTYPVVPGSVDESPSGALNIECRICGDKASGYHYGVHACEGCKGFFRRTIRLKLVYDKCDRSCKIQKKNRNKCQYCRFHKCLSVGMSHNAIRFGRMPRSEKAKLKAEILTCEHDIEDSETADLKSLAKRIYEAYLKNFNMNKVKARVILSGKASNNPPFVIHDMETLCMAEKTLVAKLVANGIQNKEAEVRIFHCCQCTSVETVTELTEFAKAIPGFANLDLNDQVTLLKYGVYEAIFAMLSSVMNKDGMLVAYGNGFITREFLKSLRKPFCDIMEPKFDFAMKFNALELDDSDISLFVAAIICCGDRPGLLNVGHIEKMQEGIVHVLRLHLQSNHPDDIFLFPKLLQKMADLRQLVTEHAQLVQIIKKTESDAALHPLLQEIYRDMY
# [2] = target: T2, Peroxisome proliferator-activated receptor delta (Homo sapiens, UniProt Q03181); experiment: Agonist activity at PPARdelta transfected in HEK293 cells by GAL4 transactivation assay
# T2 sequence (Q03181 whole entry): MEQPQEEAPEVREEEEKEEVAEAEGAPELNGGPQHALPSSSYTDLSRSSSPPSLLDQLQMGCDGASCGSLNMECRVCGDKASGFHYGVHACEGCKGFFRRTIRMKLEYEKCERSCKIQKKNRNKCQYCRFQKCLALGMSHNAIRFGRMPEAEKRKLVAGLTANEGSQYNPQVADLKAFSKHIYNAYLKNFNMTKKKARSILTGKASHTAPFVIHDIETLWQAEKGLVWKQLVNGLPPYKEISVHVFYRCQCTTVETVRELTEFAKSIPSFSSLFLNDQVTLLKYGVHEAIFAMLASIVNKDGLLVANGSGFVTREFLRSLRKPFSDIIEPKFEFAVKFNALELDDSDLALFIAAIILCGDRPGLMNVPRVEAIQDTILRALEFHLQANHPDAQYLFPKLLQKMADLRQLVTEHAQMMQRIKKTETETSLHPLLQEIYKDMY
# [3] = target: T3, Peroxisome proliferator-activated receptor gamma (Homo sapiens, UniProt P37231); experiment: Agonist activity at PPARgamma transfected in HEK293 cells by GAL4 transactivation assay
# T3 sequence (P37231 whole entry): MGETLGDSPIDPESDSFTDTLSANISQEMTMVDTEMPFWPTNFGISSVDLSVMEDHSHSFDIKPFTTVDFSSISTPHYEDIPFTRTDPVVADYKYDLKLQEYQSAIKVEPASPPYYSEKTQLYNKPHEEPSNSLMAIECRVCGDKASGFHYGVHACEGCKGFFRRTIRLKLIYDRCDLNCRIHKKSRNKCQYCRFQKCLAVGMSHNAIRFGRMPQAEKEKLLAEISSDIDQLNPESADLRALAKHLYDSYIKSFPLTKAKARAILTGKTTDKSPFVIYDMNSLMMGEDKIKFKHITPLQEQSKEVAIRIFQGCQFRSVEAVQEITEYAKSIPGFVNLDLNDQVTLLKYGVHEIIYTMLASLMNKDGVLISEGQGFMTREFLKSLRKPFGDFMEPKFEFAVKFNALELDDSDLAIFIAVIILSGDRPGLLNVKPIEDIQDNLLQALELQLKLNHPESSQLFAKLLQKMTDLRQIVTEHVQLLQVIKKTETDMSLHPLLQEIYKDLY
SMILES,pEC50 [1],pEC50 [2],pEC50 [3]
CCCOc1cc(F)c(CC(CC)C(=O)O)cc1CNC(=O)c1ccc(C23CC4CC(CC(C4)C2)C3)cc1F (racemic),7.89,7.55,7.46
CCC(Cc1ccc(OC)c(CNC(=O)c2ccc(C34CC5CC(CC(C5)C3)C4)cc2F)c1)C(=O)O (racemic),7.22,6.26,6.85
CCC(Cc1cc(F)c(OC)c(CNC(=O)c2ccc(C(F)(F)F)cc2)c1)C(=O)O (racemic),7.27,7.23,< 5.00
CCC(Cc1cc(CNC(=O)c2ccc(C(F)(F)F)cc2)c(OC)cc1F)C(=O)O (racemic),8.44,7.70,5.96
CCCOc1cc(F)c(CC(CC)C(=O)O)cc1CNC(=O)c1ccc(C23CC4CC(CC(C4)C2)C3)cc1 (racemic),7.77,7.22,7.82
CCC(Cc1cc(F)c(OC)c(CNC(=O)c2ccc(C34CC5CC(CC(C5)C3)C4)cc2)c1)C(=O)O (racemic),6.59,5.66,6.72
CCC(Cc1ccc(OC)c(CNC(=O)c2ccc(C(F)(F)F)cc2F)c1)C(=O)O (racemic),8.10,7.54,5.59
CCCOc1cc(F)c(C[C@H](CC)C(=O)O)cc1CNC(=O)c1ccc(C23CC4CC(CC(C4)C2)C3)cc1F,7.92,7.60,7.42
CCOc1cc(F)c(CC(CC)C(=O)O)cc1CNC(=O)c1ccc(C23CC4CC(CC(C4)C2)C3)cc1 (racemic),8.15,7.03,7.62
CCC(Cc1ccc(OC)c(CNC(=O)c2ccc(C34CC5CC(CC(C5)C3)C4)cc2)c1)C(=O)O (racemic),7.28,6.03,6.96
CCC(Cc1cc(CNC(=O)c2ccc(C34CC5CC(CC(C5)C3)C4)cc2)c(OC)cc1F)C(=O)O (racemic),7.89,6.55,7.44
CCCOc1cc(F)c(C[C@@H](CC)C(=O)O)cc1CNC(=O)c1ccc(C23CC4CC(CC(C4)C2)C3)cc1F,6.70,6.74,6.80
CCCOc1ccc(C[C@H](CC)C(=O)O)cc1CNC(=O)c1ccc(C23CC4CC(CC(C4)C2)C3)cc1,7.24,,
CCOc1cc(F)c(CC(CC)C(=O)O)cc1CNC(=O)c1ccc(C23CC4CC(CC(C4)C2)C3)cc1F (racemic),8.12,7.26,7.66

# From ChEMBL document CHEMBL1156558, “Improvement of the transactivation activity of phenylpropanoic acid-type peroxisome proliferator-activated receptor pan agonists: effect of introduction of fluorine at the linker part” (Bioorg Med Chem Lett, 2008)
